Data on eight compounds can be found in ChEMBL document CHEMBL1201862, “PubChem BioAssay data set” (2004).

For assay [1], the target named is Signal transducer and activator of transcription 3 (Homo sapiens, UniProt P40763). In words: STAT3 blockade with qPCR and toxicity readouts – cell-based, STAT1 panel, cytotoxicity, late-stage follow-up, panel member STAT3 Inhibition (AID 2078).
For assay [2], the target named is Signal transducer and activator of transcription 1-alpha/beta (Homo sapiens, UniProt P42224). Description: STAT3 blockade with qPCR and toxicity readouts – cell-based, STAT1 panel, cytotoxicity, late-stage follow-up, panel member STAT1 Inhibition (AID 2078).
In a further assay the target is Mu-type opioid receptor (Homo sapiens, UniProt P35372). In words: SAR Analysis of Agonists of the MOR Receptor using an Image-Based Assay - Set 3. [Related pubchem assays (depositor defined):AID1777, AID1785, AID1786, AID1966, AID2133, AID2136, AID2284, AID2285, AID2352]. It counts as functional.
In assay [3] the target is Delta-type opioid receptor (Homo sapiens, UniProt P41143). In words: SAR Analysis of Agonists of the DOR Receptor using an Image-Based Assay - Set 3. [Related pubchem assays (depositor defined):AID1777, AID1786]. The assay is classed as functional.
Delta-type opioid receptor, sequence (P41143 whole entry): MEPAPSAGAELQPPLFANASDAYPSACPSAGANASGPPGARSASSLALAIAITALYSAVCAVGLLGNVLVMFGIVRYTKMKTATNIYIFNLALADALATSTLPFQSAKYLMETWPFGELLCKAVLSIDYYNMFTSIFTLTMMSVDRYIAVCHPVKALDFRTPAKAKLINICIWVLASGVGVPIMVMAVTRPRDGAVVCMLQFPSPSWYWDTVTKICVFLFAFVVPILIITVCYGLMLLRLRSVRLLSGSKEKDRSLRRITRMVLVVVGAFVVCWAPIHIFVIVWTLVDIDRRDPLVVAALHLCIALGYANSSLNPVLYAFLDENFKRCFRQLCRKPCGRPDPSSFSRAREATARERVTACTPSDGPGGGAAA
For a further assay, the target named is SUMO-activating enzyme (Homo sapiens, UniProt Q9UBT2). Description: blockers of UBC9-mediated SUMO conjugation – biochemical, AlphaScreen, SUMOylation inhibitor project, confirmation (AID 2018). The assay is classed as functional.
SUMO-activating enzyme, sequence (Q9UBE0 whole entry): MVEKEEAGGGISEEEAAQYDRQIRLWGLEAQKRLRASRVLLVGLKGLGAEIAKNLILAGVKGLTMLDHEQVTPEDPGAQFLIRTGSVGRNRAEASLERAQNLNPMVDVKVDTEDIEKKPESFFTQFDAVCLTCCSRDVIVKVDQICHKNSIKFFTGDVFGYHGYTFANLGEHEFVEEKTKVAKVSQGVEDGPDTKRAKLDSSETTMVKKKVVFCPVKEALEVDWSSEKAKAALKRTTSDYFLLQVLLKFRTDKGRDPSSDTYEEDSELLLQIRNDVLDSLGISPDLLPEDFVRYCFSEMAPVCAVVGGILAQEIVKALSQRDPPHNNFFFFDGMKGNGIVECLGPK
SUMO-activating enzyme, sequence (Q9UBT2 whole entry): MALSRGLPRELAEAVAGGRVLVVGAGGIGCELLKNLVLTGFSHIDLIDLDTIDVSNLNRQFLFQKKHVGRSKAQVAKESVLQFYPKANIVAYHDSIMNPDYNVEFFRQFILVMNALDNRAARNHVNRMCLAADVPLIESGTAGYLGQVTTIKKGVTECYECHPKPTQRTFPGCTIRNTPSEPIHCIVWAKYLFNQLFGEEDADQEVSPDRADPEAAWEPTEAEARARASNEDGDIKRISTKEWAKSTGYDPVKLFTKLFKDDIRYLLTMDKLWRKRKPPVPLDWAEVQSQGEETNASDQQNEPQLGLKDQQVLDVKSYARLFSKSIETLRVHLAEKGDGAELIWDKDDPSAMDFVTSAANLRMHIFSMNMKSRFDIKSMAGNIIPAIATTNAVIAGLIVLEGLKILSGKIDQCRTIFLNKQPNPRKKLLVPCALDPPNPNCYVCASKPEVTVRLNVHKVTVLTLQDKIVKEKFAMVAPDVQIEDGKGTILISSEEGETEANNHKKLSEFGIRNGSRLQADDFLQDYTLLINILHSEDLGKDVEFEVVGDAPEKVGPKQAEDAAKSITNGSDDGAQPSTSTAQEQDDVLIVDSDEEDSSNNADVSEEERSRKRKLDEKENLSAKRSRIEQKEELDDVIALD
A short description of assay [4]: viability of PTEN-deleted HCT116 cells – cell-based, HCT116 PTEN knockout, dose response (AID 1047).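 Also: HCT116 colon tumor cells with PTEN knocked out; cells exposed to compound for 60 hours before readout; potency for loss of cell viability measured by luminescence.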 The assay is classed as functional.
The nature of assay [5]: viability of HCT116 lacking mutant beta-catenin – cell-based, human colon tumor, dose response (AID 1045).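 Also: HCT116 colon tumor cells with beta catenin knocked out; cells exposed to compound for 60 hours.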 The assay is classed as functional.
A further assay deals with INS1. Description: INS-1E survival protection against cytokine death – cell-based, luminescence, retest, dose response (AID 449756).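 Also: cell death triggered by IL-1 beta plus TNF-alpha plus IFN-gamma mixture; protective hits raise ATP signal compared with cytokine alone wells.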 It counts as functional. The conditions noted are these: Rattus norvegicus.
Assay [6] has as its target T1, Runt-related transcription factor 1/Core-binding factor subunit beta (Homo sapiens, UniProt Q01196+Q13951). In words: disruptors of Runt domain/CBFb-SMMHC interaction – biochemical, FRET, Cerulean-Runt, Venus-CBFb-SMMHC, uHTS, […] (AID 1434). The assay is classed as protein assay.
Assay [7] deals with T1, Runt-related transcription factor 1/Core-binding factor subunit beta. Description: Runt domain/CBFb-SMMHC interaction disruptors – biochemical, TR-FRET (AID 1438). It counts as protein assay.
The nature of assay [8]: Trypanosoma cruzi growth suppression in host cells – NIH3T3 host cells, beta-gal luminescence, confirmation (AID 2044).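 Also: intracellular parasites grown in NIH/3T3 mouse fibroblasts as host cells; luminescent beta-galactosidase reporter signal from transgenic T. cruzi replicating inside host cells; inhibitors lower the luminescence signal.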 It counts as functional, cell-based.
Assay [9] in a line: NIH3T3 cell viability loss – ATP luminescence, mouse fibroblasts, counter-screen, dose response (AID 2010).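 Also: cells exposed to compound for about 90 hours before reading.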 The assay is classed as functional, cell-based.
In the next assay the target is Integrin alpha-L (Mus musculus, UniProt P24063). In words: modulators of CD8 T cell-vesicle binding, dose response, powder samples, mouse 2C CD8+ cells (AID 504565). It counts as functional.
Integrin alpha-L, sequence (P24063 whole entry): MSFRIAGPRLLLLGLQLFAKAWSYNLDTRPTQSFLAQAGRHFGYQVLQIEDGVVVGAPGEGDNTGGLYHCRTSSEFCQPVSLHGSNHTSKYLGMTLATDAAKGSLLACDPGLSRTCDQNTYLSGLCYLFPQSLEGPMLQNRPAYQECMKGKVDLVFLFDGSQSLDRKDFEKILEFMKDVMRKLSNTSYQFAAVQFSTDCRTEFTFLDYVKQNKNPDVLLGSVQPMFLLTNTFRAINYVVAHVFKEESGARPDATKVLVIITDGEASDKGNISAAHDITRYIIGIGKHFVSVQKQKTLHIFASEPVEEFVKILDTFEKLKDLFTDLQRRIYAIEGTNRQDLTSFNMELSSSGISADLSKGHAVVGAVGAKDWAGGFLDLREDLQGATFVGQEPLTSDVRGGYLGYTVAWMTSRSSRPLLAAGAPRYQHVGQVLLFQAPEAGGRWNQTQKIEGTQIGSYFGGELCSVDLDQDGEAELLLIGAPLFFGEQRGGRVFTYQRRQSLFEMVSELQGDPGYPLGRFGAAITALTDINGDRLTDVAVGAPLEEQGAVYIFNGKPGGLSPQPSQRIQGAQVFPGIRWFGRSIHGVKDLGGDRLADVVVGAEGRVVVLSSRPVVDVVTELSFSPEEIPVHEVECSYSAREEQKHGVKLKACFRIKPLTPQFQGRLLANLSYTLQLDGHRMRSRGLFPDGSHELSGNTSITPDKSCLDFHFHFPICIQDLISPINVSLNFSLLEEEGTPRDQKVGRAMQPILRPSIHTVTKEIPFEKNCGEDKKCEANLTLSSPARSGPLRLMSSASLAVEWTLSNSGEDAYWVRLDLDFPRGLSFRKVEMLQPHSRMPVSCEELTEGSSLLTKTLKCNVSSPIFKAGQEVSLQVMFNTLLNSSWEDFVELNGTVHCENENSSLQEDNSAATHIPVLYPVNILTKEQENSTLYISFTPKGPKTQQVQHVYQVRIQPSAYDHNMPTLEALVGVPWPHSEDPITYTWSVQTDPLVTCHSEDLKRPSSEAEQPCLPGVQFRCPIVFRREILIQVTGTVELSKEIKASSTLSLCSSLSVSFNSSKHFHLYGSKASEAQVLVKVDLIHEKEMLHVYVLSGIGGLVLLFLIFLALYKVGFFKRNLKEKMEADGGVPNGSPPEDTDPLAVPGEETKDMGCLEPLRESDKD
A further assay concerns T-cell. In words: loss of vesicle association with mouse CD8+ T cells – mouse 2C CD8+ T cells, flow cytometry, dose response (AID 485284). The assay is classed as functional.
In assay [10] the target is T2, G-protein coupled receptor 35 (Homo sapiens, UniProt Q9HC97). In words: SAR analysis of Agonists of the GPR35 Receptor using an Image-Based Assay - Set 4. [Related pubchem assays (depositor defined):AID2013, AID2026]. The assay is classed as functional.
T2 sequence (Q9HC97 whole entry): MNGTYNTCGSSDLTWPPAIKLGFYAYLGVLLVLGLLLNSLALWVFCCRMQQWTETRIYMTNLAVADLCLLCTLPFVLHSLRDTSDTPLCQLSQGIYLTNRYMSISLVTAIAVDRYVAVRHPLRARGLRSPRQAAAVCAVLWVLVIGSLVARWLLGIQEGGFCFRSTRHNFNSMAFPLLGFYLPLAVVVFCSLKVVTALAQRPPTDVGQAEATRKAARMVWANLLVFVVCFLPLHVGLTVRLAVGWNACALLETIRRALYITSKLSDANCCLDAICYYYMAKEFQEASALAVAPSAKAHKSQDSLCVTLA
Assay [11] has as its target T3, Cannabinoid receptor 1 (Homo sapiens, UniProt P21554). In words: SAR analysis of agonists of the Cannabinoid Receptor 1 using an Image-Based Assay - Set 4. [Related pubchem assays (depositor defined):AID2013, AID2026]. It counts as functional.
The target of assay [12] is T2, G-protein coupled receptor 35. Description: SAR analysis of Antagonists of the GPR35 Receptor using an Image-Based Assay - Set 6. [Related pubchem assays (depositor defined):AID2013, AID2026]. It counts as functional.
In assay [13] the target is T3, Cannabinoid receptor 1. Description: SAR analysis of antagonists of the Cannabinoid Receptor 1 using an Image-Based Assay - Set 4. [Related pubchem assays (depositor defined):AID2013, AID2026]. It counts as functional.
The target in assay [14] is G-protein coupled receptor 55 (Homo sapiens, UniProt Q9Y2T6). Description: SAR Analysis of Selective Antagonists of GPR55 using an Image-Based Assay - Set 4. [Related pubchem assays (depositor defined):AID2013, AID2026]. The assay is classed as functional.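 Also: antagonism of response to 5 µM lysophosphatidylinositol agonist.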
Assay [15] addresses T4, Cannabinoid receptor 2 (Homo sapiens, UniProt P34972). Description: SAR analysis of antagonists of the Cannabinoid Receptor 2 using an Image-Based Assay - Set 3. [Related pubchem assays (depositor defined):AID2013, AID2026]. The assay is classed as functional.
Assay [16] has as its target T4, Cannabinoid receptor 2. In words: SAR analysis of agonists of the Cannabinoid Receptor 2 using an Image-Based Assay - Set 3. [Related pubchem assays (depositor defined):AID2013, AID2026]. It counts as functional.
The target of assay [17] is T5, Type-1 angiotensin II receptor (Homo sapiens, UniProt P30556).
T5 sequence (P30556 whole entry): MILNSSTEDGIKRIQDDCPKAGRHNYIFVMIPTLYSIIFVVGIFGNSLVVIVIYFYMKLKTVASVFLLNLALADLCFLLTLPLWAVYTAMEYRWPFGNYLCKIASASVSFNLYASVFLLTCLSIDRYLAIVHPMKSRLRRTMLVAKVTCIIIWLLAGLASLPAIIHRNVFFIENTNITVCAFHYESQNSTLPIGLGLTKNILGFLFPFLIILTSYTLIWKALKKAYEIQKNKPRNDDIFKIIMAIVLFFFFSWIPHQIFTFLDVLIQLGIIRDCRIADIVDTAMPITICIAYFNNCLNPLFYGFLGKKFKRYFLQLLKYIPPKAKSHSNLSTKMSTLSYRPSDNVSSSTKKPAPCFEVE
Description: agonist activity at AGTR1 – cell-based, uHTS hits, selectivity assay for APJ receptor agonist project, dose response (AID 488865).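 Also: beta-arrestin recruitment to AT1 measured by enzyme fragment complementation luminescence.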 It counts as functional.

Assay [18] addresses T6, E3 ubiquitin-protein ligase XIAP (Homo sapiens, UniProt P98170). Description: Counter Screen using XIAP-Bir3 for Chemical Antagonists of Bir1/2 domains of IAP-family anti-apoptotic proteins. [Related pubchem assays (depositor defined):AID1018, AID1449, AID1514, AID1638, AID1749, AID1750, AID488957, AID488963].
Assay [19] concerns the target T6, E3 ubiquitin-protein ligase XIAP. In words: small molecules displacing peptide from XIAP – biochemical, IAP family, fluorescence polarization (AID 1018). It counts as functional.

Active and inactive are the calls of the source.

T4 sequence (P34972 whole entry): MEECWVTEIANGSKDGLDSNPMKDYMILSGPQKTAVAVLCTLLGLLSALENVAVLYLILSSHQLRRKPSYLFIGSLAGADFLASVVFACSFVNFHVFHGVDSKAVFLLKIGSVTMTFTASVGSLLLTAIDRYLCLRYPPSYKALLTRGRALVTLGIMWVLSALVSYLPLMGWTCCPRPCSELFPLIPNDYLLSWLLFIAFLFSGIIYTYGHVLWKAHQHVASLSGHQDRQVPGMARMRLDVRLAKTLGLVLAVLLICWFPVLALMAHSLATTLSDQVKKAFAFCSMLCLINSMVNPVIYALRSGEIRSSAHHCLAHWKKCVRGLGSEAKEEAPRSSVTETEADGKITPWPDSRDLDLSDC
T6 sequence (P98170 whole entry): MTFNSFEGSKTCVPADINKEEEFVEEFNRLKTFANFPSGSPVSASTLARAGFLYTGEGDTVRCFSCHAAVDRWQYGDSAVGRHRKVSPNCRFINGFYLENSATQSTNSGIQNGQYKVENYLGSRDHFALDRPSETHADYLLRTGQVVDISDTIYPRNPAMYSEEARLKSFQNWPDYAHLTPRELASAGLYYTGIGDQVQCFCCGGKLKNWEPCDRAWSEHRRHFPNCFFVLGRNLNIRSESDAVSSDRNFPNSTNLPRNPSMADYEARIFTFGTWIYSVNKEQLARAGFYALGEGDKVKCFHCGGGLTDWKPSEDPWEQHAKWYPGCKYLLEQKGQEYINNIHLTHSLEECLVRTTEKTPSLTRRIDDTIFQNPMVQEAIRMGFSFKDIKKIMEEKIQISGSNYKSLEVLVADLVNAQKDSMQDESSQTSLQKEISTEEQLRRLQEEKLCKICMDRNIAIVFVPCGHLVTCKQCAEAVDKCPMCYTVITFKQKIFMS
T1 sequence (Q01196 whole entry, the tested form may be a part): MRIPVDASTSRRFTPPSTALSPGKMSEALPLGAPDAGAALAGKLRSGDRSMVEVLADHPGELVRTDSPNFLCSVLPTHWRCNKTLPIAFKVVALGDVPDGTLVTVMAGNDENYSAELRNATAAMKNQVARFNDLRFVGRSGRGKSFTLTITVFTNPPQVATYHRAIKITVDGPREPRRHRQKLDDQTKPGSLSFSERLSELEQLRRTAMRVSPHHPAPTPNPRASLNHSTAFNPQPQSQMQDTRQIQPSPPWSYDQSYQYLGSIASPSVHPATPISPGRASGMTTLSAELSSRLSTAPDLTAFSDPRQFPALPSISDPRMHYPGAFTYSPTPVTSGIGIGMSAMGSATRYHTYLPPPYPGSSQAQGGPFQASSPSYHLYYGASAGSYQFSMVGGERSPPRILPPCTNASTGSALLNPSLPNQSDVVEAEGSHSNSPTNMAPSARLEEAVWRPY
T1 sequence (Q13951 whole entry, the tested form may be a part): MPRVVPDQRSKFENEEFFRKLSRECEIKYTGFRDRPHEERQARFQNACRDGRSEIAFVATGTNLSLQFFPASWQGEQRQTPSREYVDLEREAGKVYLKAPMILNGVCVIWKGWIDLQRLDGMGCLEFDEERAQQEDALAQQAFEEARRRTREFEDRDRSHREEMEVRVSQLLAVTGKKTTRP
T3 sequence (P21554 whole entry): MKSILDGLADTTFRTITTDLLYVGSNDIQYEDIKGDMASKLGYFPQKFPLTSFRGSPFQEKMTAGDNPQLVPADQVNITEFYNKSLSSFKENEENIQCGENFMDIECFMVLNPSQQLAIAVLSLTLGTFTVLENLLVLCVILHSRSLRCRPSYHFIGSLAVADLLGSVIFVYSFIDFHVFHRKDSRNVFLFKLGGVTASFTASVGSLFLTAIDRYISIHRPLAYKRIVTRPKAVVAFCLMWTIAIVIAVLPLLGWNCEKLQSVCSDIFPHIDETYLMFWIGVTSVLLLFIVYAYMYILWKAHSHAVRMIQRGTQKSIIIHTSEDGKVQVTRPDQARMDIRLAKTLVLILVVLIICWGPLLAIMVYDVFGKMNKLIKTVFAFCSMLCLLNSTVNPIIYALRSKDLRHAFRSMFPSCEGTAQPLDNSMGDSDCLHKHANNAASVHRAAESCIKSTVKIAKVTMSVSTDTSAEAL

As for `NNC(=O)c1cc2c(N3CCC(Cc4ccccc4)CC3)ncnc2s1`, the IC50 in assay [1] was 13.7 µM (inactive); in assay [2], > 55.7 µM (inactive).

For `Cc1cc(C)c(CSc2nnc(-c3ccccn3)n2Cc2ccco2)c(C)c1`, the figures for the EC50 (at Mu-type opioid receptor; in [3]) were > 32 µM (inactive) and > 64 µM (inactive), respectively.

As for `CCCCCCCC(=O)Nc1ccc(C(=O)N/N=C/c2cccc([N+](=O)[O-])c2)cc1`, the IC50 on SUMO-activating enzyme was 34.7 µM (active). Moreover, the EC50 in assay [4] is 3.02 µM (active); in [5], 2.55 µM (active). In addition, in the assay on INS1, the AC50 was 4.85 µM (active).

Regarding `CCN1CCS/C1=C\C=C\C1=[N+](CC)CCS1`, the IC50 in [6] was 1.35 µM (active); in assay [7], > 100 µM (inactive). Further, the EC50 is < 100 nM (active) in assay [8], > 60 µM (not active) in [9] and 28 nM (active) in the assay “cells”.

On to `O=C(O)C1CCC(Cn2c(SCc3cc(=O)n4cc(Cl)ccc4n3)nc3ccsc3c2=O)CC1` (stereo not given), for which the EC50 on Integrin alpha-L was 51.9 µM (inactive); with T-cell it was 18.2 µM (active).

Take `N=c1c(C(=O)NCc2cccnc2)cc2c(=O)n3ccccc3nc2n1C1CCCC1`: the EC50 was > 32 µM (inactive) in assay [10], > 32 µM (inactive) on Cannabinoid receptor 1 [11] and 7.94 µM (active) on Cannabinoid receptor 2 [16]. Further, the IC50 was > 32 µM (inactive) in assay [12], > 32 µM (inactive) at Cannabinoid receptor 1 [13], 5.85 µM (active) in assay [14] and > 32 µM (inactive) at Cannabinoid receptor 2 [15].

For `O=c1oc2cc(OCc3ccc([N+](=O)[O-])cc3)ccc2c2c1CCCC2`, the EC50 in assay [17] was > 100 µM (inactive).

On to `COc1ccc(-c2nc(Cn3c(SCc4ccccc4F)nc4ccncc43)c(C)o2)cc1`, for which the IC50 in assay [18] is > 100 µM (inactive); in [19], > 100 µM (not active).
